In ChEMBL document CHEMBL1201862, “PubChem BioAssay data set” (2004):
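Growth conditions: 96-well plates. Treatment: test compound, 48 hours, 5 concentrations. Analysis: linear interpolation between bracketing concentrations; unreached endpoints set to highest concentration. Here, GI50 denotes the concentration required for 50% inhibition of growth.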 The source made the active and inactive calls. No stated cut-off is given here; in the data, active = GI50 up to about 1.1 µM and inactive = higher.

Tests used:
Test in all cases: DTP human tumour cell line panel, 48 h
786-0 = test system: 786-0
A498 = test system: A498
A549 = test system: A549
ACHN = test system: ACHN
CAKI-1 = test system: CAKI-1
HCC 2998 = test system: HCC 2998
HCT-116 = test system: HCT-116
HCT-15 = test system: HCT-15
HT-29 = test system: HT-29
LOX IMVI = test system: LOX IMVI
MOLT-4 = test system: MOLT-4
NCI-H226 = test system: NCI-H226
NCI-H522 = test system: NCI-H522
OVCAR-3 = test system: OVCAR-3
SF-268 = test system: SF-268
SK-MEL-28 = test system: SK-MEL-28
SN12C = test system: SN12C
UACC-257 = test system: UACC-257
UACC-62 = test system: UACC-62
UO-31 = test system: UO-31

| Compound | GI50 (786-0) | GI50 (A498) | GI50 (A549) | GI50 (ACHN) | GI50 (CAKI-1) | GI50 (HCC 2998) | GI50 (HCT-116) | GI50 (HCT-15) | GI50 (HT-29) | GI50 (LOX IMVI) | GI50 (MOLT-4) | GI50 (NCI-H226) | GI50 (NCI-H522) | GI50 (OVCAR-3) | GI50 (SF-268) | GI50 (SK-MEL-28) | GI50 (SN12C) | GI50 (UACC-257) | GI50 (UACC-62) | GI50 (UO-31) |
| --- | --- | --- | --- | --- | --- | --- | --- | --- | --- | --- | --- | --- | --- | --- | --- | --- | --- | --- | --- | --- |
| Cc1cc(C)nc(NS(=O)(=O)c2ccc(NC(=O)c3cccc4c(=O)c5ccccc5[nH]c34)cc2)n1 | 18.7 µM (inactive) | 18.2 µM (inactive) | 22.7 µM (inactive) | 21.6 µM (inactive) | 33 µM (inactive) | 16.7 µM (inactive) | 17 µM (inactive) | 19.7 µM | 21.3 µM (inactive) | 15.2 µM (inactive) | 30.5 µM (inactive) | 19.1 µM (inactive) | 13.1 µM (inactive) | 19.5 µM (inactive) | 21.8 µM (inactive) | 18.8 µM (inactive) | 15.9 µM (inactive) | 17.9 µM (inactive) | 20 µM (inactive) | 22.2 µM (inactive) |
| S=C(Nc1ccccc1)N(Cc1ccccc1)c1ccccc1 | 74.3 µM (inactive) | 14.6 µM (inactive) | 29.8 µM (inactive) | 35 µM (inactive) | 24.2 µM (inactive) | > 100 µM (inactive) | 40.1 µM (inactive) | 40.4 µM | 22.5 µM (inactive) | 33 µM (inactive) | 25.5 µM (inactive) | 35.7 µM (inactive) | 21 µM (inactive) | 30.2 µM (inactive) | 34.8 µM (inactive) | 17.4 µM (inactive) | 44.1 µM (inactive) | 22.4 µM (inactive) | 21.6 µM (inactive) | 29.3 µM (inactive) |
| O=c1[nH]c(-c2ccccc2)nc2c1sc1nc3ccccc3n12 | > 100 µM (inactive) | > 100 µM (inactive) | > 100 µM (inactive) | 61.4 µM (inactive) | > 100 µM (inactive) | > 100 µM (inactive) | > 100 µM (inactive) | > 100 µM | > 100 µM (inactive) | > 100 µM (inactive) | 16.1 µM (inactive) | > 100 µM (inactive) | > 100 µM (inactive) | > 100 µM (inactive) | 78.2 µM (inactive) | > 100 µM (inactive) | > 100 µM (inactive) | > 100 µM (inactive) | > 100 µM (inactive) | > 100 µM (inactive) |
| CC(N)C(C)c1ccccc1 (stereo not given) | > 100 µM (inactive) | > 100 µM (inactive) | > 100 µM (inactive) | > 100 µM (inactive) | > 100 µM (inactive) | > 100 µM (inactive) | > 100 µM (inactive) | > 100 µM | > 100 µM (inactive) | > 100 µM (inactive) | > 100 µM (inactive) | > 100 µM (inactive) | > 100 µM (inactive) | > 100 µM (inactive) | > 100 µM (inactive) | > 100 µM (inactive) | > 100 µM (inactive) | > 100 µM (inactive) | > 100 µM (inactive) | > 100 µM (inactive) |
| CCOP(=O)(OCC)C(Nc1ccc(Br)cc1)c1cccc([N+](=O)[O-])c1 (stereo not given) | 20.4 µM (inactive) | 13.3 µM (inactive) | 15.8 µM (inactive) | 18.3 µM (inactive) | 22.1 µM (inactive) | 17.5 µM (inactive) | 12.7 µM (inactive) | 14.5 µM | 16.8 µM (inactive) | 10.4 µM (inactive) | 17 µM (inactive) | 16.7 µM (inactive) | 13.6 µM (inactive) | 16.2 µM (inactive) | 17.7 µM (inactive) | 15.2 µM (inactive) | 18.8 µM (inactive) | > 10 µM (inactive) | 14.7 µM (inactive) | 10.8 µM (inactive) |
| CNc1ncc(-c2nnnn2-c2ccccc2)c(CN(C)C)n1 | > 100 µM (inactive) | > 100 µM (inactive) | > 100 µM (inactive) | > 100 µM (inactive) | > 100 µM (inactive) | > 100 µM (inactive) | > 100 µM (inactive) | > 100 µM | > 100 µM (inactive) | > 100 µM (inactive) | > 100 µM (inactive) | > 100 µM (inactive) | > 100 µM (inactive) | > 100 µM (inactive) | > 100 µM (inactive) | > 100 µM (inactive) | > 100 µM (inactive) | > 100 µM (inactive) | > 100 µM (inactive) | > 100 µM (inactive) |
| CC(C)c1cccc(=O)c(O)c1 [HINOKITIOL] | 5.22 µM (inactive) | 44.1 µM (inactive) | 9.35 µM (inactive) | 3.33 µM (inactive) | 16.1 µM (inactive) | 9.23 µM (inactive) | 3.91 µM (inactive) | 5.14 µM | 4.27 µM (inactive) | 5.06 µM (inactive) | 3.18 µM (inactive) | 11 µM (inactive) | 3.82 µM (inactive) | 4.05 µM (inactive) | 6.37 µM (inactive) | 18.9 µM (inactive) | 11.2 µM (inactive) | 4.1 µM (inactive) | 5.79 µM (inactive) | 10.5 µM (inactive) |
| CCN(CC)CC1CCCCN1CC(=O)N1c2ccccc2C(=O)Nc2cccnc21 (stereo not given) [OTENZEPAD] | 35.4 µM (inactive) | > 100 µM (inactive) | 17 µM (inactive) | 56 µM (inactive) | > 100 µM (inactive) | > 100 µM (inactive) | 12.2 µM (inactive) | 38.6 µM | 21.8 µM (inactive) | 18.3 µM (inactive) | 21 µM (inactive) | 41 µM (inactive) | > 100 µM (inactive) | > 100 µM (inactive) | 59.2 µM (inactive) | > 100 µM (inactive) | 50.9 µM (inactive) | 38.1 µM (inactive) | 91.4 µM (inactive) | 1.97 µM (inactive) |
